Measurements published in US11926596B2, “Inhibitors of Rho associated coiled-coil containing protein kinase” (KADMON CORPORATION, LLC, priority 2017, dated 2024).
Like-named read-outs stand apart in the source and are kept apart here.

Legend:
[1] = Mouse pharmacokinetic study, plasma and brain distribution 2 hours after dosing; type: in vivo; conditions: for concentration at 2 h / Kp at 2 h: 2 hours post-dose; for Kp at 2 h: brain/plasma, read-out: Brain/Plasma Ratio
Procedure: In a mouse pharmacokinetic study, 2 hours after dosing, animal tissues were harvested to determine the compound distribution.

[2] = target: T1, recombinant ROCK1 (amino acids 1-535) (Homo sapiens, UniProt Q13464); assay: Z'-lyte kinase assay, ROCK1; type: biochemical; conditions: for inhibition at 3 µM: read-out: ROCK1 % inh
T1 construct: recombinant ROCK1 (amino acids 1-535) and ROCK2; purchased ThermoFisher Scientific
Procedure: (§1) Determination of compounds ROCK inhibitory activity in vitro (Z'lyte assay): recombinant ROCK1 (amino acids 1-535) and ROCK2 (amino acids 1-552) proteins were purchased from ThermoFisher Scientific. Compounds activities were measured by Z′-lyte kinase kit (ThermoFisher Scientific) and IC50s were calculated.
(§2) Table 2, below, provides in vitro and cellular inhibition of ROCKs by compounds of the invention. Compounds activities were measured by Z′-lyte kinase kit (ThermoFisher Scientific). […] IC50s were calculated using the GraphPad Prism software with kinase activities data that were collected from points 9 serial dilution of compounds treatment. The ROCK inhibition in A7R5 cells and NIH3T3 (Acta2-Luc) cells was performed as described above.

[3] = test system: luciferase reporter driven by the human ACTA2 gene promoter in NIH3T3 cells; assay: NIH3T3 cells Acta2-promoter driven-luciferase assay; type: cell-based; conditions: plus TGF 1, 24 hr, read-out: NIH3T3, Acta2-luc, IC50
Procedure: NIH3T3 cells Acta2-promoter driven-luciferase assay: A NIH3T3 cell line stably expressing a luciferase reporter driven by the human ACTA2 gene promoter (−1000-1 bp) was established (NIH3T3-Acta2-luciferase). The cells were plated to confluence and treated with the test compounds plus TGF 1 for 24 hr. Cells were then lysed and luciferase activity was measured using the LightSwitch luciferase kit from Active Motif.

[4] = target: T2, recombinant ROCK2 (amino acids 1-552) (Homo sapiens, UniProt O75116); assay: Z'-lyte kinase assay, ROCK2; type: biochemical
T2 construct: ROCK2 (amino acids 1-552) proteins were purchased from ThermoFisher Scientific; purchased ThermoFisher Scientific
Procedure: as §1, §2

[5] = test system: Human oligodendrocyte/neuron progenitor cells; assay: Human oligodendrocyte/neuron progenitor cell differentiation (Nestin/MAP2 staining); type: cell-based; conditions: cultured 2 & 14 days with or without inhibitor
Procedure: FIG. 3. Human oligodendrocyte/neuron progenitor cells were cultured in vitro with or without ROCK inhibitor (Example 2 compound) for 2 & 14 days. Nestin and MAP2 proteins were visualized by staining with commercial antibodies to identify different stages of neuronal cell differentiation.
Human oligodendrocyte/neuron progenitor cells were cultured in vitro with or without ROCK inhibitor for 2 & 14 days. Nestin and MAP2 proteins were visualized by staining with commercial antibodies to identify different stages of neuronal cell differentiation.

[6] = test system: ROCK target MYPT1 phosphorylation in HCT116 ROCK1KO and ROCK2KO cells; assay: pMypt (T853) western blotting in HCT116 ROCK1KO and ROCK2KO cells; type: cell-based; conditions: 110 nM, 90 min
Procedure: FIG. 2. […] HCT116 cells with either a ROCK1 or ROCK2 knockout (ROCK1KO and ROCK2KO, respectively) were treated with the inhibitor for 90 min and pMypt (T853) levels were visualized by western blotting.
A CRISPR/CAS9 system was used to create HCT116 cells containing a knock out for either ROCK1 or ROCK2. The ROCK1KO and ROCK2KO cells were treated with the Example 2 compound for 90 min and pMypt (T853) levels were visualized by western blotting.

[7] = test system: phospho-myosin light chains (ppMlc, Thr18/Ser19) in A7R5 cells; assay: A7R5 in-cell ELISA, phospho-myosin light chain; type: cell-based, rat; conditions: for IC50: Rattus norvegicus
Procedure: Determination of compounds ROCK inhibitory activity in A7R5 cells: rat aortic smooth muscle cell line A7R5 cells were maintained and treated in DMEM medium with 10% of fetal bovine serum. Cells were seeded with density of 5,000 cells/well in 96-well plates for 24 hours and subsequently treated 90 min with testing compounds. Cells were then fixed and processed according to the In-Cell ELISA Colorimetric Detection Kit manual (Thermo Scientific). Cellular phospho-myosin light chains (ppMlc, Thr18/Ser19) levels were determined after treatments of DMSO control or test compounds using the In-Cell ELISA kit. The percent inhibition rate was calculated by applying the data obtained with 1 μM (or 10 μM) compound treatment to the formula, [1-(compound/DMSO)]×100%. ppMlc data obtained with 9 points 2-fold serial dilution of compounds were applied to the nonlinear regression curve fit function of the GraphPad Prism software to calculate the In cell IC50s.
A7R5 cells were treated with 9 points 2 fold serial dilution of compounds and ppMlc (T18/S19) levels were determined in order to calculate cellular IC50s of the compounds.
Two steps of measurements were adopted for pMLC/A7R5 IC50. Percent inhibition rates were calculated with a single dose (1 μM or 10 μM) compounds treatment to screen for active compounds and then cellular IC50s were measured only in compounds that have over 50% of inhibition rates.

[8] = test system: rat oligodendrocytes with rat dorsal root ganglia (DRG) explants; assay: Rat oligodendrocytes with rat dorsal root ganglia (DRG) explants co-culture; type: cell-based
Excerpt: At the same time, the ROCK inhibitor also facilitated axonal support of oligodentrocye by organized manner, which was visualized by staining the mature oligodendrocyte marker MBP.

[9] = Brain and plasma concentrations in mouse by HPLC/MS/MS after 2.5 mg/kg IV; type: in vivo; conditions: for concentration at 0.25 h / concentration at 2 h: iv; for Kp at 0.25 h / Kp at 2 h: brain/plasma; for Kp at 0.25 h: read-out: Mean Brain/Plasma Ratio at 0.25 hr; for Kp at 2 h: read-out: Mean Brain/Plasma Ratio at 2 hr
Procedure: Brain and plasma concentrations of select ROCK inhibitors were also evaluated in mouse by HPLC/MS/MS at 15 min and 2 hrs following 2.5 mg/kg IV drug administration.

[10] = test system: sAPPP; conditions: direct i.p. injection into hippocampus, rodent model of AD; cited from earlier work
[11] = cited from earlier work
[12] = 1.5 h, A7R5 cells, 90 min, read-out: pMLC IC50 A7R5
[13] = A7R5 cells, ppMlc (T18/S19), 9 points 2 fold serial dilution, read-out: ppMIc IC50
[14] = brain, 2.5 mg/kg, read-out: Mean Conc. at 0.25 hr, Brain
[15] = plasma, 2.5 mg/kg, read-out: Mean Conc. at 0.25 hr, Plasma
[16] = plasma, 2.5 mg/kg, read-out: Mean Conc. at 2 hr, Plasma

T1 sequence (Q13464 1-535): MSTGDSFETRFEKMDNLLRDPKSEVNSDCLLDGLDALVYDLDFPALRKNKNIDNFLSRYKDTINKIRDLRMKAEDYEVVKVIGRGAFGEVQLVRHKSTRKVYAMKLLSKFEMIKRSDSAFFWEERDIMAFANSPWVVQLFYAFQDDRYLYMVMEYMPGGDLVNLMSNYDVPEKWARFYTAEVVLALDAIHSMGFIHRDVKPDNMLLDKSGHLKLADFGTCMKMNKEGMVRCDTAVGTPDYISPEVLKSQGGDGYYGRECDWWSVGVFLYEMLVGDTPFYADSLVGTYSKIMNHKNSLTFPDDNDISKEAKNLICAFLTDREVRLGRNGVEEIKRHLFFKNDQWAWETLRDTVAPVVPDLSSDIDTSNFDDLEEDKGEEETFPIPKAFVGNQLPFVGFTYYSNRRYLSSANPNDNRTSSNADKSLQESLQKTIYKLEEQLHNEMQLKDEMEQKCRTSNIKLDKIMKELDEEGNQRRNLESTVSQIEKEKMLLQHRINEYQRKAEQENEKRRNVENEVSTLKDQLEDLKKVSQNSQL
T2 sequence (O75116 1-552): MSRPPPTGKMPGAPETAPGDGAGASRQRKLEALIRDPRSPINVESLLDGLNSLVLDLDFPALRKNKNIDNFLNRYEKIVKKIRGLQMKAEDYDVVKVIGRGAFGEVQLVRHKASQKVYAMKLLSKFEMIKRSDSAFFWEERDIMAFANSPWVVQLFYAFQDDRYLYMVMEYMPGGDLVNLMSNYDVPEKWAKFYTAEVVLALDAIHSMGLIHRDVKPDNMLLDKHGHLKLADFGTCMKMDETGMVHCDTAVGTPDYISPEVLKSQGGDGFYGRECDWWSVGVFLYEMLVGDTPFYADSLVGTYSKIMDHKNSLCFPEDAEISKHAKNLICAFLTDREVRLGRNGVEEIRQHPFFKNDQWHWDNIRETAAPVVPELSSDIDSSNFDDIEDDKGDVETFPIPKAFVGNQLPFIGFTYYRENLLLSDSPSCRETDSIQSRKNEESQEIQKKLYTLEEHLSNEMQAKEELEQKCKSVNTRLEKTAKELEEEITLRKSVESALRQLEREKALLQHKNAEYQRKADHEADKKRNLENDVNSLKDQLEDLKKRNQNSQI

Structure (SMILES) | IC50 [2] [nM] | inhibition at 3 µM [2] [%] | IC50 [4] [nM] | IC50 [7, 12] [nM] | IC50 [7, 13] [nM] | concentration at 0.25 h [9, 14] [ng/g] | Kp at 0.25 h [9] | Kp at 2 h [9] | concentration at 0.25 h [9, 15] [ng/mL] | concentration at 2 h [9, 16] [ng/mL] | inhibition at 1 µM ([4]; read-out: ROCK2 % inh) [%] | IC50 [3] [nM] | other results
CNC(C(=O)Nc1ccc2[nH]ncc2c1)c1ccccc1 (centres unmarked) [Example 2, N-(1H-indazol-5-yl)-2-(methylamino)-2-phenylacetamide] | 25 | 98.8 | 21 | 304 | 304 | – | – | – | – | – | – | 885 | BBB penetrant property ([1]; 2 hours after dosing): excellent; concentration at 2 h ([1]; brain, IV 10 mg base/kg, read-out: Brain Concentration): 699 ng/g; concentration at 2 h ([1]; brain, PO 10 mg base/kg, read-out: Brain Concentration): 700 ng/g; concentration at 2 h ([1]; brain, PO 30 mg base/kg, read-out: Brain Concentration): 2860 ng/g; concentration at 2 h ([1]; brain, PO 100 mg base/kg, read-out: Brain Concentration): 19400 ng/g; Kp at 2 h ([1]; IV 10 mg base/kg): 3.31; Kp at 2 h ([1]; PO 10 mg base/kg): 1.73; Kp at 2 h ([1]; PO 30 mg base/kg): 2.04; Kp at 2 h ([1]; PO 100 mg base/kg): 2.08; concentration at 2 h ([1]; plasma, IV 10 mg base/kg, read-out: Plasma Concentration): 211 ng/mL; concentration at 2 h ([1]; plasma, PO 10 mg base/kg, read-out: Plasma Concentration): 405 ng/mL; concentration at 2 h ([1]; plasma, PO 30 mg base/kg, read-out: Plasma Concentration): 1400 ng/mL; concentration at 2 h ([1]; plasma, PO 100 mg base/kg, read-out: Plasma Concentration): 9290 ng/mL; inhibition at 3 µM ([4]; 3 μM, read-out: ROCK2 % inh): 98.7%; mature neuronal cell marker MAP2 expression [5]: significantly facilitated; neurite outgrowth [5]: improved; pMypt (T853) levels, MYPT1 phosphorylation [6]: efficiently blocked; IC50 ([7]; pMLC in A7R5 cells, read-out: cellular ROCK inhibition IC50): 252 nM; axonal support of oligodendrocyte (MBP / neurofilament staining) [8]: facilitated; cytoskeletal organization / myelin segments (neurofilament staining) [8]: producing many shorter ordered myelin segments
CN(C)CCOc1cc(-c2cn[nH]c2)ccc1NC(=O)C1COc2ccccc2O1 (centres unmarked) [SR3677] | – | – | – | – | – | – | – | – | – | – | – | – | effect on sAPPP [10]: lowering sAPPP; brain penetration ([11]; in vivo): lack of brain penetration; half-life ([11]; oral PK properties): < 1 h; F (oral) ([11]; oral): 5%
CNC(C(=O)Nc1ccc2[nH]ncc2c1)c1ccc(Oc2cccc(OC)c2)cc1 (centres unmarked) [Example 15, N-(1H-indazol-5-yl)-2-(4-(3-methoxyphenoxy)phenyl)-2-(methylamino)acetamide] | 13 | – | 10 | 124 | 124 | 853 | 2.17 | 6.99 | 394 | 41.4 | – | 219 | concentration at 2 h ([9]; brain, 2.5 mg/kg, read-out: Mean Conc. at 2 hr, Brain): 288 ng/g

More lines, in order of falling IC50 [2], values ahead:

IC50 [2] [nM] | inhibition at 3 µM [2] [%] | IC50 [4] [nM] | IC50 [7, 12] [nM] | IC50 [7, 13] [nM] | concentration at 0.25 h [9, 14] [ng/g] | Kp at 0.25 h [9] | Kp at 2 h [9] | concentration at 0.25 h [9, 15] [ng/mL] | concentration at 2 h [9, 16] [ng/mL] | inhibition at 1 µM ([4]; read-out: ROCK2 % inh) [%] | Structure (SMILES) | IC50 [3] [nM] | other results
3.8 | 93.2 | 15 | 252 | – | – | – | – | – | – | 99 | CNC(C(=O)Nc1ccc2[nH]ncc2c1)c1ccc(Cl)cc1 (centres unmarked) [Example 16, 2-(4-chlorophenyl)-N-(1H-indazol-5-yl)-2-(methylamino)acetamide] | 915 | cellular ROCK inhibition compared with Comparative Example 2 ([7]; phosphorylation of the ROCK target pMLC in A7R5 cells): enhanced
3.2 | – | 17 | 304 | – | 566 | 1.33 | 8.41 | 427 | 2.14 | 99.5 | CNC(C(=O)Nc1ccc2[nH]ncc2c1)c1cccc(OC)c1 (centres unmarked) [Example 41, N-(1H-indazol-5-yl)-2-(3-methoxyphenyl)-2-(methylamino)acetamide] | 539 | Mean Conc. at 0.25 hr, Brain ([9]; 2.5 mg/kg): 541 ng/g
